Data reported in patent US5328913A, “Minoxidil analogs as inhibitors of cell proliferation and lysyl hydroxylase” (priority 1992, dated 1994).

What was measured:
lysyl hydroxylase = assay: Lysyl hydroxylase activity in extracts of treated human skin fibroblasts (Example 2, pyridine, triazine and N-alkyl analogs); assay type: cell-based
Method: Cells were treated for 72 hr with minoxidil or its triazine analog at the indicated concentrations. The enzyme activities in extracts of treated cells were measured by tritium release assays (Murad and Pinnell, J. Biol. Chem. 262:11,973 (1987)) and are expressed as a percentage of zero-concentration values. PH, prolyl hydroxylase; LH, lysyl hydroxylase.
Cells were treated for 72 hr with various concentrations of minoxidil or its N-alkyl analogs as indicated. The enzyme activity in extracts of treated cells was measured by tritium release assays (Murad and Pinnell, J. Biol. Chem. 262:11,973 (1987)) and is expressed as a percentage of zero-concentration value. The minoxidil curve is reproduced from FIG. 4.
Cultures of human skin fibroblast (1.5×10^6 cells) were seeded onto 100-mm plates and incubated at 37° in Dulbecco's modified Eagle's medium supplemented with 20% calf serum. After 24 hr, the medium was replaced with medium supplemented with 0.5% heat-inactivated dialyzed calf serum. The incubation was continued for an additional 72 hr in the presence of 0.1-2 μM minoxidil analogs dissolved in 0.12N HCl; the final concentration of HCl was 0.0012N or 0.0024N. Cells treated with HCl only served as control. During the last 3 hr of incubation, cells received […] ascorbic acid to ensure complete hydroxylation of the polypeptide precursors of procollagen (Murad et al, J. Invest. Dermatol. 75:404 (1980)). At the end of the incubation period, cells were harvested by trypsinization and disrupted by sonication in a buffered medium (Murad et al, J. Biol. Chem. 262:11,973 (1987)).
Lysyl hydroxylase activity in extracts of treated cells was measured with an underhydroxylated procollagen substrate (Murad et al, J. Biol. Chem. 262:11,973 (1987)), which was prepared by labeling cultures of human skin fibroblasts with L-[4,5-^3 H]lysine in the presence of an iron chelator α,α'-dipyridyl (Murad and Pinnell, Conn. Tiss. Res. 13:181 (1985)). The amount of tritium released was quantitated as ^3 HO after vacuum distillation . Prolyl hydroxylase activity was similarly measured with an underhydroxylated procollagen substrate containing L-[4-^3 H]proline (Murad and Pinnell, J. Biol. Chem. 262:11973 (1987); Murad and Pinnell, Conn. Tiss. Res. 13:181 (1985)). The enzyme activities are based on a unit of soluble cell protein. The protein content of cell extracts was determined by a dye-binding techniques using Bio-Rad reagents (Bradford, Anal. Biochem. 72:248 (1976)).
Cells were treated for 72 hr with 1 mM minoxidil or its
structural analogs as indicated. The enzyme activity in extracts
of treated cells was measured by a tritium-release assay and is
expressed as a percentage of HCl-treated control.

[1] = tested on: Prolyl Hydroxylations in Human Skin Fibroblasts; assay: Hydroxylation of proline residues in type I procollagen (Hyp/Pro); assay type: cell-based; conditions: for Hyp/Pro: 72 hr
Method: Culture of human skin fibroblasts derived from an apparently normal adult were grown to confluent densities in Dulbecco's modified Eagle's medium supplemented with 10% (v/v) fetal calf serum. Thereafter, the medium was replaced with medium supplemented with 0.5% dialyzed fetal calf serum. […] In some experiments, minoxodil was dissolved in 95% (v/v) ethanol; […]. Cultures treated with ethanol only served as the control.
During the last 6 hr of treatment, cultures were labeled with 50 μCi of L-[2,3-^3 H]proline (35 Ci/mmol) and 50 μCi of L[U-^14 C]lysine ([…]) in 4 ml of lysine-free medium supplemented with 100 μM ascorbic acid. At the end of the incubation period, the medium was removed and mixed with 1 mM each of EDTA, N-ethylmaleimide, and phenylmethylsulfonylfluoride, and the collagenous proteins were precipitated with 30% (NH4)2 SO4. The cell layer was scraped and extracted with 0.5 M acetic acid containing the protease inhibitors as above. The cell extract was neutralized, and the collagenous proteins were precipitated as above. The (NH4)2 SO4 precipitate from the medium and cell layer was separately dissolved in 0.1% SDS/10 mM Tris-HCl (pH 6.8), reduced with dithiothreitol, and analyzed by electrophoresis on 4% SDS-polyacrylamide gels. The bands corresponding to the proαl(I) and proα2(I) chains from the two fractions were pooled and hydrolyzed with 6 M HCl for 24 hr at 110° C. Proline, hydroxyproline, lysine, and hydroxylysine in the hydrolysate were separated by HPLC (Takimitsa et al, J. Dermatol. 16:37 (1989)), and their radioactivity was determined in a Beckman liquid scintillation counter. To isolate type I procollagen the precipitate from the medium and cell layer was separately dissolved in 25 mM Tris-HCl, pH 7.5, containing 2 M urea and 1 mM each of EDTA, N-ethylmaleimide, and phenylmethylsulfonylfluoride, then chromatographed on a DEAE-cellulose column (Freiberger et al, J. Invest. Dermatol. 75:425 (1980)). The procollagen isolated from the two fractions was pooled, hydrolyzed, and analyzed as above.

[2] = tested on: Collagen Synthesis in Human Skin Fibroblasts; assay: Collagen synthesis in human skin fibroblasts; assay type: cell-based; conditions: 1 mM, 72 hr
Method: Culture of human skin fibroblasts derived from an apparently normal adult were grown to confluent densities in Dulbecco's modified Eagle's medium supplemented with 10% (v/v) fetal calf serum. Thereafter, the medium was replaced with medium supplemented with 0.5% dialyzed fetal calf serum. The cultures were treated for 72 hr with 1 mM minoxidil, 3'- hydroxyminoxidil,or 4'-hydroxyminoxidil (Upjohn) dissolved in aqueous medium. In some experiments, minoxodil was dissolved in 95% (v/v) ethanol; […]. Cultures treated with ethanol only served as the control.
During the last 6 hr of treatment, cultures were labeled with 20 μCi of L-[2,3-^3 H]proline in 1 ml of medium supplemented with 100 μM ascorbic acid. The amount of proline radioactivity incorporated into collagen in the medium and cells combined was measured after digestion with a bacterial collagenase, essentially as described previously (Freiberger et al, J. Invest. Dermatol. 75:425 (1980)).

[3] = tested on: non-proliferating fibroblasts; assay: Cytotoxicity to non-proliferating fibroblasts (cell number per dish); assay type: cell-based; conditions: 5 mM, 72 hr
Description: Certain aspects of the present invention are described in greater detail in the non-limiting Examples that follow. (See also Murad et al, Arch. Biochem. Biophys. 292:234 (1992)).

human skin fibroblasts = conditions: background; cited from earlier work

Nc1cc(N2CCCCC2)nc(N)[n+]1[O-] [Minoxidil]
decrease of the activity of lysyl hydroxylase (lysyl hydroxylase; 1 mM, 72 hr): 73% | Lysyl hydroxylase activity (%) (lysyl hydroxylase; 1 mM, 72 hr, % of HCl-treated control (Table III)): 27% | IC50 (lysyl hydroxylase; 72 hr (FIG. 4, FIG. 5), read-out: concentration giving 50% inhibition (lysyl hydroxylase)): 200 µM | Hyp/Pro ([1]; 1 mM, gel electrophoresis (Table V)): 0.92 ± .01 | Hyp/Pro ([1]; 1 mM, type I procollagen chains isolated by gel electrophoresis, mean ± range of two experiments (description table)): 0.92 ± 0.01 | Hyp/Pro ([1]; 0.3 M, type I procollagen chains isolated by gel electrophoresis, mean ± range (Table IV)): 0.91 ± .03 | activity at 1000 µM ([1]; Homo sapiens, Skin fibroblast, 1 mM, 72 hr (Table V), read-out: ratio of hydroxyproline to proline, % control value): 100% | ratio of hydroxyproline to proline (in words) ([1]; Table IV text): remained unaltered | % Collagen Synthesized ([2]; mean ± SD of duplicate analysis of two cultures (Table VII)): 6.6 ± 0.7% | inhibition at 1000 µM ([2]; Homo sapiens, Skin fibroblast, compared with control, read-out: reduction of synthesis of collagen relative to that of total protein): 25% | 10^-6 × No. of Cells/Dish [3]: 0.49 10^-6 × No. of Cells/Dish | inhibition of serum-induced proliferation of fibroblasts in culture (in words) (human skin fibroblasts): capable of inhibiting the serum-induced proliferation of fibroblasts in culture
